Laboratory results from ChEMBL document CHEMBL1201862, “PubChem BioAssay data set” (2004).
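Exposure lasted 48 hours, with cells grown in 96-well plates and compounds tested at five concentrations. GI50: concentration for 50% inhibition of growth.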 Activity calls are given as the source filed them. Cut-off read from the data, not from the text of the source: active = GI50 up to about 1.1 µM and inactive = higher.

How the values were obtained:
Experiment in all cases: NCI-60 cell line screen, 48 h
[1] = test system: 786-0
[2] = test system: A498
[3] = test system: ACHN
[4] = test system: BT-549
[5] = test system: HT-29
[6] = test system: K562
[7] = test system: LOX IMVI
[8] = test system: MCF7
[9] = test system: MDA-MB-435
[10] = test system: MDA-N
[11] = test system: NCI-H23
[12] = test system: NCI-H460
[13] = test system: OVCAR-5
[14] = test system: SF-295
[15] = test system: SK-MEL-2
[16] = test system: SNB-75
[17] = test system: SR
[18] = test system: T47D
[19] = test system: TK-10
[20] = test system: UACC-257

Measured: GI50

C[C@@H]1CC[C@@]2(OC1)O[C@H]1[C@@H](O)[C@H]3[C@@H]4CC[C@H]5C[C@@H](O[C@@H]6O[C@H](CO)[C@H](O[C@@H]7O[C@H](CO)C(O)[C@H](O[C@@H]8OC[C@@H](O)[C@H](O)[C@H]8O)[C@H]7O[C@@H]7O[C@H](CO)[C@H](O)[C@H](O[C@@H]8O[C@H](CO)[C@@H](O)[C@H](O)[C@H]8O)[C@H]7O)[C@H](O)[C@H]6O)[C@H](O)C[C@]5(C)[C@H]4CC[C@]3(C)[C@H]1[C@@H]2C (stereo not given in full) [DIGITONIN]
inactive: [1] 1.61 µM | [2] 6.18 µM | [3] 1.52 µM | [4] 1.63 µM | [5] 3.51 µM | [6] 3.08 µM | [7] 3.42 µM | [8] 2.18 µM | [9] 11.2 µM | [10] 3.33 µM | [11] 2.26 µM | [12] 1.94 µM | [13] 2.07 µM | [14] 1.82 µM | [15] 3.37 µM | [16] 2.83 µM | [17] 2.37 µM | [18] 3 µM | [19] 2.49 µM | [20] 8.38 µM

O=C1c2ccccc2S(=O)(=O)c2cc(-c3nn[nH]n3)ccc21 [DOXANTRAZOLE]
inactive: [1] > 100 µM | [2] > 100 µM | [3] > 100 µM | [4] > 100 µM | [5] > 100 µM | [6] > 100 µM | [7] > 100 µM | [8] > 100 µM | [9] > 100 µM | [10] > 100 µM | [11] > 100 µM | [12] > 100 µM | [13] > 100 µM | [14] > 100 µM | [15] > 100 µM | [16] > 100 µM | [17] > 100 µM | [18] > 76.4 µM | [19] > 100 µM | [20] > 100 µM

CC(C)C(OC(=O)c1cc(NC(=S)c2ccccc2)ccc1Cl)C(C)C
inactive: [1] 16.7 µM | [2] 21.1 µM | [3] 14.9 µM | [4] 20.8 µM | [5] 9.31 µM | [6] 25.7 µM | [7] 19.8 µM | [8] 17.3 µM | [9] 14.7 µM | [10] 16.6 µM | [11] 6.5 µM | [12] 14.1 µM | [13] 42.7 µM | [14] 4.53 µM | [15] 16 µM | [16] 19.4 µM | [17] 11.9 µM | [18] 7.85 µM | [19] 21.5 µM | [20] 13.7 µM

O=CNc1ccc2c(c1)C(=O)c1ccccc1-2
inactive: [1] 42.9 µM | [2] 90.2 µM | [3] > 100 µM | [4] > 100 µM | [5] 49 µM | [6] 81.3 µM | [7] 48.8 µM | [8] 20.8 µM | [9] > 100 µM | [10] > 100 µM | [11] > 100 µM | [12] 46 µM | [13] > 100 µM | [14] > 100 µM | [15] > 100 µM | [16] 86.3 µM | [17] 37.2 µM | [18] 76.9 µM | [19] > 100 µM | [20] > 100 µM
